Assay [1] concerns immunizing peptide and free peptides. Kind of assay: ELISA of sera from mice immunized with HBsAg CTL epitope-C5a agonist constructs. The assay is classed as in vivo. The settings on record: 1:50 dilution of the serum. On the procedure:
Immunization protocols. Groups of six to eight BALB/c mice were given bilateral s.c. injections in the inguinal area with (100 μl each side) of a PBS solution containing 50-100 μg of the peptides. Booster injections were given s.c. in the inguinal region at 21-day intervals. Sera for Ab analysis were obtained by retro-orbital bleeds of mice under CO2 narcosis.
Antibodies to the HBsAg CTL epitope or the C5a agonist are not produced by immunization with the HBsAg CTL epitope-C5a agonist constructs. […] Thus, it was of interest to determine whether sera from mice immunized with the control peptides and epitope-C5a agonist constructs contained antibody directed against any of the peptides. […] (SEQ ID NO: 12), […]
For orientation: In an ELISA, binding on a coated surface is turned into a signal by an enzyme label.

For another assay, the target named is T1, C5aR (Homo sapiens, UniProt P21730).
T1 construct: endogenous in cells; host or cells: intact human PMNs (polymorphonuclear leukocytes)
T1 sequence (P21730 1-350): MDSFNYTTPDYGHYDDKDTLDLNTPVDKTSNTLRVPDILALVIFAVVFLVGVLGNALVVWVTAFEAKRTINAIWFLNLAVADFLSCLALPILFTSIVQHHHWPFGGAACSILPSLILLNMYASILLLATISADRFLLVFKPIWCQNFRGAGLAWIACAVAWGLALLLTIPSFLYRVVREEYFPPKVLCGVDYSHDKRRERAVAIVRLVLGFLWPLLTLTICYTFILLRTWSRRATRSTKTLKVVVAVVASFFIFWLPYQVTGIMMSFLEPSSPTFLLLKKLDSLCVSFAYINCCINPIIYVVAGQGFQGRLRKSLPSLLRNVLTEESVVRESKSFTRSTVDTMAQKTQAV
Kind of assay: Binding affinity for C5aRs on human PMNs (125I-C5a competition). On the procedure: Pharmacologic assays. C5a-like agonistic activity was assessed by the ability of the peptides to induce smooth muscle contraction of human umbilical artery and […] from human PMNs according to previously published methods (Sanderson et al., 1994, supra; Sanderson et al., J. Med. Chem. 38, 3669, 1995; Finch et al., J. Med. Chem. 40, 877, 1997). Full concentration-response curves were generated for individual peptides and natural C5a in each assay and the EC50 values (the concentration of peptide producing 50% of the maximal response to each peptide) were calculated. pD2 transforms [−log EC50 (M)] were calculated for each concentration-response curve and reported as the mean±SE. Peptide binding affinity to the C5aR was evaluated on intact human PMNs by a competition assay using ^125I-C5a according to previously described methods (Sanderson et al., 1995, supra; Finch et al., 1997, supra). Statistical analysis of the values obtained from pharmacologic assays was performed using one-way analysis of variance (ANOVA).

The test system of a further assay is human umbilical artery. Kind of assay: Smooth muscle contraction of human umbilical artery. The assay is classed as cell-based. On the procedure: (§1) Pharmacologic assays. […] Statistical analysis of the values obtained from pharmacologic assays was performed using one-way analysis of variance (ANOVA).
For assay [2], the system named is 51Cr-labeled P815S (HBsAg transfectant) target cells. Kind of assay: HBsAg-specific CTL response of immunized mice (51Cr-release assay). The settings on record: for % Specific Lysis: s.c. in PBS, boost day 21, spleen cells day 42. It counts as in vivo, BALB/c mice.
The subject of another assay is human PMNs. Kind of assay: MPO release from human PMNs. The assay is classed as cell-based. The procedure:
as §1

In assay [3] the target is T2, C5a receptor (C5aR) expressed on the surface of human PMNs (human, UniProt P21730 1-350).
T2 construct: whole, on cells; also called C5aRs
T2 sequence (looked up): T1 sequence (P21730 1-350)
Kind of assay: competition with 125I-C5a on intact human PMNs; concentration giving 50% inhibition of 125I-C5a binding.

For assay [4], the target named is T2, C5a receptor (C5aR) expressed on the …. Kind of assay: competition with 125I-C5a on intact human PMNs.
From the text: Pharmacologic activities.
Assay [5] has the same target. Kind of assay: cell-based or functional assay.
For assay [6] the target is unchanged. The assay is described as follows: cell-based or functional assay. The source holds these as a separate data set.

Square brackets hold non-standard residues; d marks the D form. Peptide text beside a SMILES is read from it.

On to `CC[C@H](C)[C@H](N)C(=O)N1CCC[C@H]1C(=O)N[C@@H](CCC(N)=O)C(=O)N[C@@H](CO)C(=O)N[C@@H](CC(C)C)C(=O)N[C@@H](CC(=O)O)C(=O)N[C@@H](CO)C(=O)N[C@@H](Cc1c[nH]c2ccccc12)C(=O)N[C@@H](Cc1c[nH]c2ccccc12)C(=O)N[C@H](C(=O)N[C@@H](CO)C(=O)N[C@@H](CC(C)C)C(=O)N[C@@H](CCCNC(=N)N)C(=O)N[C@@H](CCCNC(=N)N)C(=O)N[C@@H](Cc1ccc(O)cc1)C(=O)N[C@@H](CO)C(=O)N[C@@H](Cc1ccccc1)C(=O)N[C@@H](CCCCN)C(=O)N1CCC[C@H]1C(=O)N[C@@H](CCSC)C(=O)N1CCC[C@H]1C(=O)N[C@@H](CC(C)C)C(=O)N[C@H](C)C(=O)N[C@@H](CCCNC(=N)N)C(=O)O)[C@@H](C)O` (H-IPQSLDSWWTSLRRYSFKPMPL[dA]R-OH; N-terminus assumed), for which, in assay [1], the “serum binding to the free C5a agonist and CTL epitope peptides (ELISA)” value is listed as “did not bind the free peptides”. Moreover, the EC50 came out at 416 nM on C5aR, 161 nM in the assay on human umbilical artery (concentration resulting in 50% maximum contraction) and 540 nM in the assay with human PMNs (concentration resulting in 50% maximum release of myeloperoxidase). For the same molecule, the half-inhibitory concentration (IC50) at C5aR is 417 nM. Also, the “pD2 ± SE” value is reported as 6.79 ± 0.31 in the assay with human umbilical artery (−log EC50 (M), mean ± SE, n 3) and 6.27 ± 0.29 with human PMNs (−log EC50 (M), mean ± SE, n 3). In addition, the “% Specific Lysis” value is 9% in assay [2] (Effector:Target Ratio 6.25:1), 14% in assay [2] (Effector:Target Ratio 12.5:1), 23% in assay [2] (Effector:Target Ratio 25:1) and 32% in assay [2] (Effector:Target Ratio 50:1). Besides, in assay [2] (three s.c. injections of 50 μg at 21 day intervals, no added adjuvant), the “antigen-specific CTL response” value is “generated an antigen-specific CTL response”.

B1: natural C5a (ligand, UniProt P01031 678-751, looked up)
chain: TLQKKIEEIAAKYKHSVVKKCCYDGACVNNDETCEQRAARISLGPRCIKAFTECCVVASQLRANISHKDMQLGR
In turn, B1 came in with an EC50 in [3] of 0.4 nM. The “pD2 (-log EC50 (M))” value in assay [4] worked out at 9.43. In assay [5], the “MPO release from human PMNs, EC50” value was 3 nM and the “MPO release from human PMNs, pD2 (-log EC50 (M))” value is 8.5. Moreover, in [6], the “smooth muscle contraction of human umbilical artery, EC50” value was 2 nM and the “smooth muscle contraction of human umbilical artery, pD2 (-log EC50 (M))” value came to 8.77.

As usually defined, the EC50 is the concentration needed to bring the measured effect to its halfway point. Read a low EC50 as higher potency in that assay. What is called IC50 is the point on the concentration scale where inhibition reaches its midpoint. Low values mean greater potency, high ones weaker potency.

Source of the values: US20050089524A1, “Compositions and compounds for use as molecular adjuvant for a nicotine vaccine” (priority 2002, published 2005).
